Entries after “also recorded” stand apart in the source; their conditions may differ. *1 amine or outer side, *2 acyl side, *3 side chain or, on linkers, in order; H or OH if unused. Where a SMILES comes first, the peptide text is derived from it. Bridges are numbered along the chain shown (N, C = ends). Roman numbers before positions name the chains, in order. Where no end group is shown, it is not given here. [ ]: non-standard residue; d: D form. Actinocin(9to1) = Cc1c2oc3c(C)ccc(C(=O)[*:1])c3nc-2c(C(=O)[*:2])c(N)c1=O; NMeV = CN[C@H](C(=O)O)C(C)C; Sar = CNCC(=O)O
Experiments:
[1] = test system: SCM-responding lymphocytes from healthy donors; experiment: Modification/induction of SCM response of lymphocytes from healthy donors by preincubation with SCM factor; assay type: cell-based, human; details: 10 μg/5×10^6 cells during incubation with synthetic SCM factor
Experimental: 10, 1986, and entitled "Automated Collection of Buoyant Density Specific Cells from Density Gradients." Aliquots of these cells were incubated in 3 ml of the following: (a) cell-free blood plasma from cancer patients; (b) plasma from cancer patients ultrafiltered for 12 hours through an Amicon™ UM2 filter with a molecular weight cutoff of 1000 daltons; (c) plasma from cancer patients ultrafiltered for 12 hours through an Amicon™ UM5 filter with a nominal molecular weight cutoff of 500 daltons; (d) general cancer-associated SCM factor as purified through the desalting or Sephadex G-10 column stage; (e) the factor as purified through the Sephadex G-50 column stage; (f) the factor as purified through the DEAE-cellulose column step; (g) the factor as finally purified through the RP-HPLC step; and (h) plasma from healthy donors ultrafiltered through an Amicon™ UM2 filter with a nominal molecular weight cutoff of 1000 daltons. […]
Before being contacted with either a mitogen or with the SCM factor for determination of the RRSCM the incubated cells were thoroughly washed. The presence or absence of modification was determined by the ratio of the polarization value of the lymphocyte suspension after a short contact period with substrates containing the SCM factor over the polarization value of the lymphocyte suspension after a short contact period with phytohaemagglutinin (PHA). […]

[2] = test system: MCF7 breast cancer cells; experiment: SCM factor in cultured cancer cells by noncompetitive ELISA; assay type: cell-based, human
Experimental: (§1) The SCM factors secreted from human cancer cells in culture whose amino acid sequences were presented in Example 24 also reacted with the anti-SCM antibody of Example 20. A variation on the ELISA assay of Example 21 was used. In this version of the ELISA assay, the assay was performed directly on the eluate from the RP-HPLC purification step that remained adsorbed to the Eppendorf™ collection tubes after loading of the bulk of the eluates onto the sequenator disk. No other SCM factor was added, and there was no additional sample added to the assay. This version of the SCM ELISA assay is noncompetitive; the larger is the quantity of SCM factor adsorbed to the Eppendorf™ tubes, the higher is the measured A405. The results, shown in Table 15, clearly indicate the presence of material able to react with anti-SCM antibody in these fractions.
(§2) Human cancer cells in culture were directly shown to contain SCM-factor molecules by antibody reactivity. Washed cells from monolayered cultures of several human cancer cells: MCF7 breast cancer cells; T1080 fibrosarcoma cells; A2780 ovarian cancer cells; and HCT80 colon cancer cells, were assayed directly by the noncompetitive ELISA assay procedure of Example 25.
As shown in Table 17 of Example 26, treatment of human cultured cancer cells with cycloheximide, an inhibitor of protein synthesis, decreases the amount of SCM factor produced by these cells. […] The amounts of SCM factor per 7×10^6 cells in the presence or absence of 10^-3 molar ascorbic acid after a 16-hour incubation were measured by the noncompetitive ELISA procedure of Example 25. The aliquot of cancer cells incubated in the presence of ascorbate ions produced 43.9% less SCM factor than untreated control cells.

[3] = test system: T1080 fibrosarcoma cells; experiment: as above; assay type: cell-based, human
Experimental: as §1, §2

[4] = test system: SCM-responding lymphocytes; details: from prior applications Ser. No. 07/167,007 and 07/163,250; cited from earlier work
[5] = test system: K 562 human myeloid cell line; experiment: Natural lymphocyte cytotoxicity against K 562 cells (51Cr release); assay type: cell-based; details: for Percent Cytotoxicity: PBL, 35 femtomoles, 2.5 hours 37° C., 40:1; for Percent Cytotoxicity: Treated & Washed Lymphocytes: 35 femtomoles per lymphocyte, effector/target 40:1
Experimental: Aliquots of these lymphocytes were also retained as controls and not incubated. In addition, potentially SCM-responding lymphocytes were obtained from donors having cancer, and treated in the same manner-some aliquots incubated with plasma containing SCM factor and others retained as controls and not incubated.
After incubation the cytotoxicity of the lymphocytes was tested in accordance with the method described in M. R. Potter and M. Moore, "Natural Cytotoxic Reactivity of Human Lymphocyte Subpopulations," Immunology 37, 187-194 (1979). In accordance with this published method cells of the K 562 human myeloid cell line labeled with ^51 Cr were used as target cells for the assay. The potentially SCM-responding lymphocytes were used as the effector cells. The ratio of target cells to effector cells was 1 to 20. […] The percent of cytotoxicity is determined as follows: [formula] where RS is the percent of ^51 Cr release in the sample, RC the percent of ^51 Cr release in the control and RT is the percent of ^51 Cr release in the presence of a detergent, Triton X-100. […] When the incubation was performed with potentially SCM-responding lymphocytes from cancer patients, the decrease in cytotoxicity was smaller, between 40 and 90%. […] The lower level of cytotoxicity present in cells from cancer patients was consistent with a decrease of such cytotoxicity caused by in vivo exposure to factors such as the cancer-associated SCM recognition factor.
The purified synthetic SCM factor molecule and peptides F1-F5, F7, and F8, as described above in Example 16, were investigated to determine their suppressive effect on the natural cytotoxicity of lymphocytes against cancer cells, using the human myeloid cell line K 562 as target as measured by the conventional ^51 Cr release method (Example 13).
In brief, the K 562 target cells grown in suspension in RPMI-FBS culture medium were washed and labeled for 3 hours at 37° C. with 100 μCi sodium [^51 Cr]chromate and then washed 4 times in RPMI growth medium. The effector lymphocytes used were isolated from heparinized peripheral blood of normal healthy donors using either appropriate density solutions to isolate the SCM-responding subpopulation of lymphocytes, as described above under "Isolation of SCM-responding Lymphocytes," or the conventional separation medium Histopaque 1077 for isolation of the total population of peripheral blood lymphocytes (PBL). The effector cell to target cell ratio used in these experiments was 40:1. Control samples contained target cells only and were used to determine background isotope release from the target cells. The test samples contained 0.2 mL aliquots of labeled target cells to which 0.2 mL of effector lymphocytes was added; the effector lymphocytes were either untreated or had been pretreated with either the entire synthetic SCM factor or any of the fragments designated F1 to F5, F7, or F8 for 2.5 hours at 37° C. The tests were carries out in triplicate. Cell suspensions were incubated for 18 hours at 37° C. in an atmosphere of 95% air and 5% CO2. Samples were then centrifuged for 10 minutes at 200 xg. From each test sample tube, a 0.2 mL aliquot of the supernatant was removed. Both the supernatant and the remaining cell pellet were counted in a Beckman gamma counter. The maximum possible isotope release was taken as the count obtained by adding the counts for the supernatant and cell pellets. The percentage of ^51 Cr release was determined for each of the triplicate samples; using the mean value of ^51 Cr release, the percentage of cytotoxicity was calculated according to the equation presented in Table 25.

[6] = cycloheximide 50 μg/10^6 cells, 16 hrs
[7] = experiment with untreated control 46.5 ± 1.5
[8] = experiment with untreated control 72.7 ± 1.2
[9] = experiment with untreated control 80.4 ± 1.0
[10] = experiment with untreated control 71.2 ± 1.5

## Cc1c2oc3c(C)ccc(C(=O)N[C@@H]4C(=O)N[C@H](C(C)C)C(=O)N5CCC[C@H]5C(=O)N(C)CC(=O)N(C)[C@@H](C(C)C)C(=O)O[C@@H]4C)c3nc-2c(C(=O)N[C@@H]2C(=O)N[C@H](C(C)C)C(=O)N3CCC[C@H]3C(=O)N(C)CC(=O)N(C)[C@@H](C(C)C)C(=O)O[C@@H]2C)c(N)c1=O [Actinomycin D, actinomycin D] (I: T[dV]P[Sar][NMeV] / II: T[dV]P[Sar][NMeV]; ester I:1-I:C, II:1-II:C; linker I:N-II:N via Actinocin(9to1))
[1]
  induction of response to synthetic SCM factor in presence of protein synthesis inhibitor: no response to synthetic SCM factor was induced

## C[C@@H]1C[C@@H]([C@H](O)CC2CC(=O)NC(=O)C2)C(=O)[C@@H](C)C1 [Cycloheximide, cycloheximide]
[1]
  induction of response to synthetic SCM factor in presence of protein synthesis inhibitor: no response to synthetic SCM factor was induced
[2]; cycloheximide 20 μg/10^6 cells, 3 hrs
  Corrected A405 As % of Control: 91.2 % of Control
[2]; cycloheximide 20 μg/10^6 cells, 3 hrs, control 2.0716
  Corrected A405 (SCM factor synthesis): 1.8893
[2]; [6]
  Corrected A405 As % of Control: 74.7 % of Control
[2]; cycloheximide 50 μg/10^6 cells, 16 hrs, control 0.9654
  Corrected A405 (SCM factor synthesis): 0.7217
[2]; cycloheximide treatment
  decrease of concentration of SCM factor associated with the cells: 25.3%
[3]; [6]
  Corrected A405 As % of Control: 66.0 % of Control
[3]; cycloheximide 50 μg/10^6 cells, 16 hrs, control 1.5060
  Corrected A405 (SCM factor synthesis): 0.9940
[3]; cycloheximide treatment
  decrease of concentration of SCM factor associated with the cells: 34%

## O=C1O[C@H]([C@@H](O)CO)C(O)=C1O [L-ascorbic acid]
[2]; 1 × 10^-3 M, pH 7.1, 16 hrs at 37° C., 7×10^6 cells, control 1.7448
  Corrected ELISA A405 (SCM factor synthesis): 0.9788
[2]; 10^-3 molar, 16-hour incubation
  less SCM factor produced than untreated control cells: 43.9%
[2]; Homo sapiens, MCF7, 1 × 10^-3 M, pH 7.1, 16 hrs at 37° C., read-out: Corrected ELISA A405 as % of Control
  activity at 1000 µM: 56.1%

## F-S-W-G-A-E-G-Q-R (FSWGAEGQR) [EAE peptide, experimental allergic encephalitogenic peptide]
[4]
  SCM factor activity: has no SCM factor activity; also recorded: completely devoid of SCM activity

## F-W-G-A-E-G-Q-R (FWGAEGQR)
[4]
  SCM factor activity: with SCM-factor activity

## FLMIDQNTK [F4, F-L-M-I-D-Q-N-T-K]
[5]; [7]
  Percent Cytotoxicity: 48.6 ± 1.3%
[5]; [8]
  Percent Cytotoxicity: 76.2 ± 1.3%
[5]; [9]
  Percent Cytotoxicity: 81.0 ± 1.5%

## FLMIDQNTKVPLFMGK [F7]
[5]; [10]
  Percent Cytotoxicity: 72.7 ± 1.0%

## FNKPFVFLMIDQNTK [F3, F-N-K-P-F-V-F-L-M-I-D-Q-N-T-K]
[5]; [8]
  Percent Cytotoxicity: 74.5 ± 1.5%
[5]; [9]
  Percent Cytotoxicity: 80.5 ± 1.0%

## FNKPFVFLMIDQNTKVPLFMGK [F2, FNKPFVFLMIDQNTKVPLFMGK]
[5]; [7]
  Percent Cytotoxicity: 2.4 ± 0.2%
[5]; [8]
  Percent Cytotoxicity: 14.9 ± 1.5%
[5]; [9]
  Percent Cytotoxicity: 2.6 ± 1.7%

## MIPPEVKFNKPFVF [F5, M-I-P-P-E-V-K-F-N-K-P-F-V-F]
[5]; [8]
  Percent Cytotoxicity: 72.7 ± 1.3%
[5]; [9]
  Percent Cytotoxicity: 79.8 ± 0.9%

## MIPPEVKFNKPFVFLMDQNTK [F1, MIPPEVKFNKPFVFLMDQNTK]
[5]; [8]
  Percent Cytotoxicity: 78.5 ± 1.0%
[5]; [9]
  Percent Cytotoxicity: 81.0 ± 1.0%

## MIPPEVKFNKPFVFLMIDQNTKVPLFMGK [Synthetic SCM Factor, MIPPEVKFNKPFVFLMIDQNTKVPLFMGK]
[5]
  dose resulting in a 50% decrease in cytotoxicity: 11.5 femtomoles per lymphocyte
  quantity required for a 50% decrease of the cytotoxic effect: 11.5 femtomoles
[5]; PBL of healthy donors
  Percent Cytotoxicity: Treated & Washed Lymphocytes: 3.0 ± 0.8%
[5]; [7]
  Percent Cytotoxicity: 0.1 ± 0.8%
[5]; [8]
  Percent Cytotoxicity: 3.2 ± 0.1%
[5]; [9]
  Percent Cytotoxicity: 3.1 ± 0.8%
[5]; SCM-R lymphocytes of healthy donors
  Percent Cytotoxicity: Treated & Washed Lymphocytes: 0.1 ± 0.9%

## VPLFMGK [F8]
[5]; experiment with untreated control 31.0 ± 2.0
  Percent Cytotoxicity: 33.0 ± 1.8%
[5]; [10]
  Percent Cytotoxicity: 71.7 ± 1.2%

Reference: patent publication US5443967A, “DNA encoding the cancer associated SCM recognition factor” (priority 1993, dated 1995)
